{
  "source": "patent US6291470A",
  "about": "“Indole derivatives process for producing the same and medicinal uses of the same” (Toray Industries, Inc., priority 1992, dated 2001)",
  "key": {"δ-opioid receptor [1]": {"test_system": "δ-opioid receptor", "details": "Portoghese, J. Med. Chem. 33, 1547 (1990); cited from earlier work"}, "δ-opioid receptor [2]": {"target": "T1, δ-opioid receptor (Mus musculus, UniProt P32300)", "T1 construct": "from tissue; host or cells: vas deferens of male ddy mice", "T1 sequence (P32300 whole entry)": "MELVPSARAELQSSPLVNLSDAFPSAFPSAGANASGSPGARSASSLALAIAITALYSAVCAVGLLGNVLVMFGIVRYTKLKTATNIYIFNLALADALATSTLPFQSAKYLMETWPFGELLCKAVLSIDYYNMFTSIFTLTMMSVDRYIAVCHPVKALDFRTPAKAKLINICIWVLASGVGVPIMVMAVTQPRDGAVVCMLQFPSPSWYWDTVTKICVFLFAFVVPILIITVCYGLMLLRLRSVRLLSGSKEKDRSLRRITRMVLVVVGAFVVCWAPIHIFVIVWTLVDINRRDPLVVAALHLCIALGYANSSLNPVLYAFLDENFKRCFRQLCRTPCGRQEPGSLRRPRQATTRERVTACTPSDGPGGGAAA", "assay": "Change in δ-antagonist activity against DPDPE with time in mouse vas deferens (MVD)", "details": "for Ratio of IC50 Values / Kb: 173 and NTI at 20 nM, 174 and 5'-NTII at 100 nM; for Kb: read-out: Ke", "method": "In this experiment, ddy male mice were used. In a Magnus' tube which is filled with Krebes-Henseleit solution (NaCl […]; KCl 4.7 mM; CaCl2 2.5 mM; KH2 PO4 1.1 mM; NaHCO3 25 mM; glucose 11 mM) kept at 37° C., and into which an atmosphere consisting of 5% carbon dioxide and 95% oxygen was flown, vas deferens taken from the animals was suspended. Electric stimulation was applied through ring-shaped platinum electrodes mounted on the upper and lower portions of the tube at a frequency of 0.1 Hz and 5.0 mS duration. The contraction of the tissue was recorded on polygraph using isometric transducer.\nThen 100 nM of the test compound was added. Twenty minutes later, DPDPE was begun to be added cumulatively. The ratio of IC50 values in the presence and absence of the test compound, Ke value (the molar concentration of the test compound necessary for translating the dose-effect curve to the curve of twice dose) and pA2 value were determined. The pA2 value was determined by the method of Shild et al (Shild, H. O., Br. J. Pharmac. Chamotehr., 4, 277 (1949)). That is, the logarithm of the test compound (log[test compound]) was plotted along the abscissa and the logarithm of the value obtained by subtracting 1 from the ratio of IC50 values was plotted in the presence and absence of the test compound [log(dose ratio-1)] along the ordinate. The pA2 value was determined from the value on the abscissa when the value on the ordinate of the obtained line is 0.\nUsing MVD, the antagonist activities of compounds 173 and 174 against DPDPE were determined. The ratio of IC50 values, Ke values and pA2 values at 15 minutes, 30 minutes and 1 hour from the addition of the test compounds were calculated. Since the concentrations of the test compounds are different, the reciprocals of Ke values were plotted in FIGS. 1 and 2."}},
  "note": "Where two headings read alike, the source gives them in different places.",
  "data": [
    {"smiles": "Oc1ccc2c3c1O[C@H]1c4[nH]c5ccc(N=C=S)cc5c4C[C@@]4(O)[C@@H](C2)N(CC2CC2)CC[C@]314", "note": "[5'-NTII, reference compound]", "values": [
      {"measurement": "antagonist activity and selectivity to δ-opioid receptor (in words)", "setting": "δ-opioid receptor [1]", "result": "antagonist activity and selectivity to δ-opioid receptor are low"},
      {"measurement": "Ratio of IC50 Values", "setting": "δ-opioid receptor [2]; 15 min", "result": 3.28},
      {"measurement": "Kb", "setting": "δ-opioid receptor [2]; 15 min", "result": 43.9, "unit": "nM"},
      {"measurement": "change of antagonist activity with time (in words)", "setting": "δ-opioid receptor [2]; 15 min to 1 hour", "result": "increased with time"},
      {"measurement": "Ratio of IC50 Values", "setting": "δ-opioid receptor [2]; 30 min", "result": 7.47},
      {"measurement": "Kb", "setting": "δ-opioid receptor [2]; 30 min", "result": 15.5, "unit": "nM"},
      {"measurement": "Ratio of IC50 Values", "setting": "δ-opioid receptor [2]; 60 min", "result": 9.36},
      {"measurement": "Kb", "setting": "δ-opioid receptor [2]; 60 min", "result": 12, "unit": "nM"}
    ]}
  ]
}
